Test system: λ-DNA
Assay: AFM imaging of DNA complexes
Assay type: physicochemical, lambda phage
Details: 50 μg/ml λ-DNA, stoichiometric KWK 64 μM (16 μM PP4, 8 μM PP8), 10 mM sodium cacodylate buffer
Procedure: Preparation of DNA complexes. […] The mixture solution was vortexed for 30 seconds and allowed to equilibrate at room temperature for a few hours. The final DNA concentration was set at 50 μg/ml.
Characterization of DNA complexes structure by Atomic Force Microscopy. DNA complexes were deposited on freshly cleaved mica and then allowed to air dry. Tapping mode AFM imaging was performed on a Digital Instruments Nanoscope […] scanning probe microscope with a multimode head. Silicon probes (VistaProbes T300) with spring constant 40 N/m, resonant frequency, 300 kHz was used to obtain all images.
Long linear lambda phage DNA, λ-DNA, (double-stranded, 48 kbp, MW=3×10^7 Da, contour length—17 μm) in dilute aqueous solution (100 μg ml^−1 DNA in 10 mM pH=6.5 sodium cacodylate buffer containing 0.5 mM EDTA) was used for packaging studies. […] The final DNA concentration was set at 50 μg ml^−1 throughout the studies in this example. The DNA-KWK, DNA-PP4 and DNA-PP8 complex structures were investigated by atomic force microscope (“AFM”) on mica substrates.

lysine-tryptophan-lysine [KWK]
DNA compaction (AFM): No DNA compaction
